One compound from patent publication US20160166581A1 (priority 2014, published 2016) can be followed below.

Several values for one entry are separate records, joined by “and”; a condition that tells them apart may be missing. Identical values can stand only once.

The subject of one assay is feline diabetic subjects. As to the kind of experiment: Glucose Tolerance Test/Felines (ipGTT). It is filed as in vivo, cat. The procedure: Glucose Tolerance Test/Felines. Four feline diabetic subjects (male, age 5-7 years) with newly diagnosed DM (diabetes). […] These 4 cats are subjected to intraperitoneal injection of 2 grams/kg glucose. (ipGTT). Blood glucose levels are obtained via Cephalic iv. catheter at 30 and 60 minutes.

Assay [1] concerns cats with stage 3 and 4 renal disease. Briefly: Feline renal disease, serum creatinine pre and post treatment. The arrangement: Serum creatinine post treatment: unit not given here. It counts as in vivo, cat. An excerpt: This example measures feline renal disease. […] The average weight of the domestic cats was approximately 6 lbs.
Assay [2] relates to horses with black walnut extract induced laminitis. Briefly: Black walnut extract induced laminitis, treatment with donepezil. It counts as in vivo, horse. The procedure: Three domestic horses, average age 26, are corralled in close proximity to a Black Walnut tree with exposed roots and debris from black walnuts shells, including leaves. The weight of the horses is 1100-1200 lbs. Horses are quartered in a 24×36 square foot area with a Black Walnut tree within the confined area.
The horses are evaluated continuously after 6 hours of exposure to remove them from exposure to the black walnut extract once symptoms occur.
Subsequent doses are 50 mg on Day #3-7. Horses are given Timothy hay and water, but no other medicinal or mechanical interventions.
The same 3 horses are used in similar exposure design, as in the original experiment to induce laminitis. […] The dose is tapered to 50 mg orally on Days #3 through #7.

Assay [3] concerns obese domestic cats with diabetes. Here is the method: Five obese domestic cats with diabetes (average weight 14.2 lbs.) are on glargine insulin for glycemic control. […] All cats are being treated with glargine insulin in bid dosing schedule. […] Over a 14 day period morning blood glucose levels (prior to feeding) are recorded.
[4] abbreviates: 4 cats, 1.25 mg daily for 4 weeks.
The mark [5] stands for this setting: individual cats #1-#4, donepezil 1.25 mg daily for 4 weeks.
[6] abbreviates: individual cats #1-#4, donepezil 1.25 mg daily for 4 weeks, 2 gm/kg glucose ip.
Where [7] appears, read: after repeat exposure and treatment.
The mark [8] stands for this setting: first exposure, 3 horses, 100 mg orally Day 1-2, 50 mg Day 3-7.
[9] abbreviates: repeat exposure, same 3 horses, 100 mg Day 1-2, 50 mg Days 3-7.

For the compound `COc1cc2c(cc1OC)C(=O)C(CC1CCN(Cc3ccccc3)CC1)C2` (centres unmarked) [donepezil], in the assay with feline diabetic subjects (setting [4]), the “30 minutes blood glucose levels on average less than before treatment” value was “approximately 24%” and the “60 minute GTT on average less than without treatment” value was 42%. Besides, the “Glucose tolerance (in words)” value in the assay on feline diabetic subjects (4 weeks prior to ipGTT testing, versus same subjects before treatment) is “improved glucose tolerance”. Besides, in the assay with feline diabetic subjects (setting [5]), the “Decrease of 30 minute ipGTT blood glucose versus before treatment” value was 29% and 22% (2×) and 25%; the “Decrease of 60 minute ipGTT blood glucose versus before treatment” value is 42% and 39% and 41% and 46%. Further, in the assay with feline diabetic subjects (setting [6]), the “Blood glucose at 30 minutes in ipGTT” value was 269 mg/dL and 292 mg/dL and 278 mg/dL and 304 mg/dL; the “Blood glucose at 60 minutes in ipGTT” value is 152 mg/dL and 164 mg/dL and 145 mg/dL and 147 mg/dL. In addition, the “Improvement of creatinine in six cats” value in assay [1] (donepezil 2.5 mg daily over 4 week period) was “approximately 56%”. The “Serum creatinine post treatment” value in assay [1] (individual cats 1-6, stage 3 or 4 renal disease, donepezil 2.5 mg daily for 4 weeks) was 1.8 and 2.6 and 2.0 and 1.9 and 2.5 and 2.3. Also, the “Decrease of serum creatinine post versus pre treatment” value in assay [1] (individual cats 1-6, donepezil 2.5 mg daily for 4 weeks) is 49% and 53% and 45% and 60% and 65% and 62%. Besides, in assay [2] (setting [7]), the “Gait (horse movements)” value is “no abnormalities” and the “Lasting lameness or constitutional symptoms” value was “No observable lasting lameness or constitutional symptoms”. Also, in assay [2] (first exposure, 3 horses), the “Systemic symptoms after day #7” value is given as “No systemic symptoms are noted”. Besides, in assay [2] (setting [8]), the “All subjects appear normal by” value is not above 7 days; the “Normal activity noted as early as” value was 5 days; the “Warmth, posturing and trembling resolved by” value was not above 3 days. Moreover, in assay [2] (setting [9]), the “Resolution of symptoms and normal movements completed by” value is not above 7 days; the “Resolution of symptoms and normal movements observed at” value was 5 days. In assay [3] (#2 Cat, from 3 u. bid, secondary to low morning blood glucose), the “Dose of glargine insulin decreased to” value worked out at 2 units. For the same compound, the “Morning blood glucose levels (prior to feeding) during treatment” value in assay [3] (individual diabetic cats #1-#5 on glargine insulin, 1.25 mg donepezil orally daily, 14 day period) was 88 to 113 mg/dL and 105 to 128 mg/dL and 96 to 117 mg/dL.
